Measured values taken from paper PMC12155096 (International Journal of Molecular Sciences, 2025).
Like-named read-outs stand apart in the source and are kept apart here.

Tests used:
human CYP2C9 = human CYP2C9 (Homo sapiens, UniProt P11712)
[1] = target: Photinus pyralis (firefly) luciferase (Photinus pyralis, UniProt P08659); assay: biochemical; assay type: biochemical
CYP3A4 = CYP3A4 (Homo sapiens, UniProt P08684)
human CYP2D6 = human CYP2D6 (Homo sapiens, UniProt P10635)
human CYP1A2 = target: T1, human CYP1A2 (Homo sapiens, UniProt P05177)
T1 sequence (P05177 1-516): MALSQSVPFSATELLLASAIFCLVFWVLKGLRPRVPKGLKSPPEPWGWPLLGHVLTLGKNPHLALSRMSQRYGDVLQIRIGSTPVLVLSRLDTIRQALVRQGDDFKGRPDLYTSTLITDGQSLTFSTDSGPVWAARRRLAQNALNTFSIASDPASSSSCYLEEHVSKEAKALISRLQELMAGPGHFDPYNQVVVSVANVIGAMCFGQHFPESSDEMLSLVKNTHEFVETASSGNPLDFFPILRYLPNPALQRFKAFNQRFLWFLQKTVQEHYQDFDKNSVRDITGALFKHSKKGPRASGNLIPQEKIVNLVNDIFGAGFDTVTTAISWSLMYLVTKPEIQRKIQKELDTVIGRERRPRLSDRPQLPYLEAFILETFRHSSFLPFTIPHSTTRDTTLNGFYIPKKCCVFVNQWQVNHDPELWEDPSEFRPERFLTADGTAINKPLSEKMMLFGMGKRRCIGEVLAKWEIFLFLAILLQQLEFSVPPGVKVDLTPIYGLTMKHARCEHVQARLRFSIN

human CYP2C19 = human CYP2C19 (Homo sapiens, UniProt P33261)
human CYP2C19, sequence (P33261 whole entry): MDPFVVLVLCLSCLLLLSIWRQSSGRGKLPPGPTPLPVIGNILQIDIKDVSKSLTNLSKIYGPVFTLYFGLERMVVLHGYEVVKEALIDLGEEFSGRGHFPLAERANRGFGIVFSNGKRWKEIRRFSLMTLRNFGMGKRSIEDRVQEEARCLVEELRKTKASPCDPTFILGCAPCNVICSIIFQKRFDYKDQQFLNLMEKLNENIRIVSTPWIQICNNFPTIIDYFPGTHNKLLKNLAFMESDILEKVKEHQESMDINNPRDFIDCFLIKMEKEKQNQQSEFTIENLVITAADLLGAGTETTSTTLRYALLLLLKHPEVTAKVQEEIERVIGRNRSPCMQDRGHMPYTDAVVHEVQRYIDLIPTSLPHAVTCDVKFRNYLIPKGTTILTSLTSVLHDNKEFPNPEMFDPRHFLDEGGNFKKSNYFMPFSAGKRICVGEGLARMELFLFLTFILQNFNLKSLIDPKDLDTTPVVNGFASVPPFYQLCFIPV

[2] = read-out: Luciferase IC50 (half-maximal inhibitory concentration)

human CYP2C9, sequence (P11712 whole entry): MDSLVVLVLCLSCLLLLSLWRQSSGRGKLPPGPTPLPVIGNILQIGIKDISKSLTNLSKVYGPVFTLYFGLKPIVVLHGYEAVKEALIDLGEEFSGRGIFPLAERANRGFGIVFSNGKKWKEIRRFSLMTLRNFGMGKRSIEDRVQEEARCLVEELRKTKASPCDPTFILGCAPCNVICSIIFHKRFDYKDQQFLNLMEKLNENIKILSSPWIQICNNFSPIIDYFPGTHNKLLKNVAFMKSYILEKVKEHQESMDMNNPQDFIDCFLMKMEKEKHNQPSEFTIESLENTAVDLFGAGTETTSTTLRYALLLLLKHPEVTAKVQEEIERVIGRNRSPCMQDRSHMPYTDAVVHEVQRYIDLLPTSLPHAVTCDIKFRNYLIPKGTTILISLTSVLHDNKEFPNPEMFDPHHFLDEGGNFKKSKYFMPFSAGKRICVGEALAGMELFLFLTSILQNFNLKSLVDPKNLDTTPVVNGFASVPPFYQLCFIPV
Photinus pyralis (firefly) luciferase, sequence (P08659 whole entry): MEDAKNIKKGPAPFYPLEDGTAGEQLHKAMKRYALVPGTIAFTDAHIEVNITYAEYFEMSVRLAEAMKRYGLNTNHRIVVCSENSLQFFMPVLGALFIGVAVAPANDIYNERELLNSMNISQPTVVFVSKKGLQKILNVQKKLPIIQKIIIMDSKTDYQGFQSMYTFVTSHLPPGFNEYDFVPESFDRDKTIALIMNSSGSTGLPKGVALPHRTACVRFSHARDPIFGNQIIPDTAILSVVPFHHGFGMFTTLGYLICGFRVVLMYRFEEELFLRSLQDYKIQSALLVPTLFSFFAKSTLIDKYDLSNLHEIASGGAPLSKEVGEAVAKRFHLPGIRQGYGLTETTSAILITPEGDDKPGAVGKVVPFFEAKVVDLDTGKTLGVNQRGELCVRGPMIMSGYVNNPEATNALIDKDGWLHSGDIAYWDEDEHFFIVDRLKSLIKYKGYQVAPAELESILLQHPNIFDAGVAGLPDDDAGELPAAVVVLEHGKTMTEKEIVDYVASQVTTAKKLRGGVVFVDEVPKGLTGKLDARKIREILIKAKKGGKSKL
CYP3A4, sequence (P08684 whole entry): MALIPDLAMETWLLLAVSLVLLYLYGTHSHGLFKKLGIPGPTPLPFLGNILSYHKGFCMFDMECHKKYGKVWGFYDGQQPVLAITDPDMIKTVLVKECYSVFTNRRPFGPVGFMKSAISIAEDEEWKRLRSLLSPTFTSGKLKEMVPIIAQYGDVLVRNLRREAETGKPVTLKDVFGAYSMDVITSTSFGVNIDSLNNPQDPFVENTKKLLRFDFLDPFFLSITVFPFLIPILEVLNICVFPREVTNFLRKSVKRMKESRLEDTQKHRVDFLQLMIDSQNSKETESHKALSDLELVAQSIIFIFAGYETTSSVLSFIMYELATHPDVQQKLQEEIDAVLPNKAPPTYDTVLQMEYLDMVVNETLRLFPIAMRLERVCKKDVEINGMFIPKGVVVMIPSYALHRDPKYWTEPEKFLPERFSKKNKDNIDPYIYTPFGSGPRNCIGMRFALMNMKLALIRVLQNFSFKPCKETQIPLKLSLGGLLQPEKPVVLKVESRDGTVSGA
human CYP2D6, sequence (P10635 whole entry): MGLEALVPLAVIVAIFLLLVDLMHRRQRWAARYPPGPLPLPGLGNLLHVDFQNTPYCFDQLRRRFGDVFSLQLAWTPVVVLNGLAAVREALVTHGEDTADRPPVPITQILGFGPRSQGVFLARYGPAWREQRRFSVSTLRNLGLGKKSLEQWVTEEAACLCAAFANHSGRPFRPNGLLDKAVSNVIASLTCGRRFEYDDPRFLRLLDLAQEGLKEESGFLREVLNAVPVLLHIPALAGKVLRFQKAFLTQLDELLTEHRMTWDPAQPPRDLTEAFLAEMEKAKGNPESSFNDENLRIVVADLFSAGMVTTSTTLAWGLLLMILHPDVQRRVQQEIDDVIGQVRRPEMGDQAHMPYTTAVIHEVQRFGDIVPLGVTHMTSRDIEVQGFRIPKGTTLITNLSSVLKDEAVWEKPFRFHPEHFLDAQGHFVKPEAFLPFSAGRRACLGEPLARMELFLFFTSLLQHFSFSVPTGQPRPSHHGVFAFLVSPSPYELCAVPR

Row | Compound | Luciferase IC50 (half-maximal inhibitory concentration) [1] | CYP3A4 Efficacy (in parenthesis) (CYP3A4) | CYP1A2 Efficacy (in parenthesis) (human CYP1A2) | IC50 (human CYP1A2) [µM] | CYP2C19 Efficacy (in parenthesis) (human CYP2C19) | IC50 (human CYP2C19) [µM] | IC50 (CYP3A4) [µM] | IC50 (human CYP2D6) [µM] | IC50 (human CYP2C9) [µM] | further results
1 | OCC(c1ccc(Cl)cc1)c1ccc(Cl)cc1 [2,2-Bis(4-chlorophenyl)ethanol] | Inactive | 18.71 ± 6.46 (64 ± 10) % | 34.28 ± 2.23 (-78 ± 6) % | 34.3 | 0.14 ± 0.07 (-161 ± 31) % | 0.14 |  |  |  | AC50 (human CYP2C9): 11.7 µM; CYP2C9 Efficacy (human CYP2C9): 11.71 ± 0.79 (-108 ± 10) %; CYP2C9 Efficacy (in parenthesis) (human CYP2C9): 11.71 ± 0.79 (-108 ± 10) %; AC50 (CYP3A4): 18.7 µM; CYP3A4 IC50 (half-maximal inhibitory concentration) (CYP3A4): 18.71 ± 6.46 (64 ± 10) µM; CYP2D6 IC50 (half-maximal inhibitory concentration) (human CYP2D6): Inactive; CYP1A2 Efficacy (human CYP1A2): 34.28 ± 2.23 (-78 ± 6) %; CYP2C19 Efficacy (human CYP2C19): 0.14 ± 0.07 (-161 ± 31) %
2 | CCOc1cc(OCC)c(C(C)=O)cc1OCC [2,4,5-Triethoxyacetophenone] | Inactive |  |  | 0.87 |  | 65 | 58.5 | 69.8 |  | CYP2C9 Efficacy (human CYP2C9): 37.98 ± 5.23 (-54 ± 11) %
3 | Cc1cc(N=Nc2ccccc2C)ccc1N [2-Amino-5-azotoluene] |  |  |  | 0.99 |  | 6.21 | 2.53 | 45.4 |  | CYP2C9 Efficacy (human CYP2C9): 5.45 ± 1.48 (-102 ± 10) %; IC50 ([1]; read-out: Luciferase IC50): 5.66 µM
4 | Nc1nc2ccc([N+](=O)[O-])cc2s1 [2-Amino-6-nitrobenzothiazole] |  |  |  | 9.75 |  | 35.7 | 60.6 | 44 |  | CYP2C9 Efficacy (human CYP2C9): 59.75 ± 4.61 (-39 ± 3) %; IC50 ([1]; read-out: Luciferase IC50): 66.4 µM
5 | Clc1ccc2c(c1)Nc1ccccc1S2 [2-Chlorophenothiazine] | Inactive |  |  | 0.44 |  | 7.85 |  |  |  | CYP2C9 Efficacy (human CYP2C9): 11.4 ± 3.88 (-60 ± 10) %; CYP3A4 IC50 (half-maximal inhibitory concentration) (CYP3A4): Inactive; CYP2D6 IC50 (half-maximal inhibitory concentration) (human CYP2D6): Inactive
6 | NNc1nc(-c2ccccc2)cs1 [2-Hydrazino-4-phenylthiazole] |  |  |  | 0.75 |  | 8.06 | 14 | 53.2 | 8.86 | IC50 ([1]; read-out: Luciferase IC50): 33.9 µM
7 | COc1cc2c(cc1N)oc1ccccc12 [2-Methoxy-3-aminodibenzofuran] |  |  |  | 0.63 |  | 3.95 | 8.5 | 7.61 | 6.23 | IC50 [1, 2]: 54.6 µM
8 | Cc1cc(-c2cc(C)c(N)c(C)c2)cc(C)c1N [3,3',5,5'-Tetramethylbenzidine] |  |  |  | 0.24 |  | 12.1 | 28.1 | 16.2 | 21.2 | Luciferase IC50 [1]: Inactive
9 | COc1cc(-c2ccc(N)c(OC)c2)ccc1N.Cl.Cl [3,3'-Dimethoxybenzidine dihydrochloride] |  |  |  | 0.82 |  | 7.39 | 1.71 | 30.4 | 8.91 | IC50 [1, 2]: 60.4 µM
10 | CC(=O)c1ccc2ccc3ccccc3c2c1 [3-Acetylphenanthrene] |  | 48.54 ± 19.2 (-66 ± 4) % | 1.04 ± 0.13 (-97 ± 1) % | 1.04 | 22.42 ± 2.58 (-138 ± 3) % | 22.4 | 48.5 | 88.9 | 11.6 | CYP2C9 Efficacy (in parenthesis) (human CYP2C9): 11.64 ± 0.79 (-93 ± 2) %; Luciferase Efficacy (in parenthesis) [1]: 32.81 ± 2.22 (-56 ± 6) %; IC50 [1, 2]: 32.8 µM; CYP2D6 Efficacy (in parenthesis) (human CYP2D6): 88.85 ± 0 (-46 ± 10) %
11 | O=C(C(=O)c1ccc(Br)cc1)c1ccc(Br)cc1 [4,4'-Dibromobenzil] | Inactive |  | 9.92 ± 0 (-37 ± 3) % | 9.92 | 0.71 ± 0.31 (-137 ± 6) % | 0.71 |  |  |  | CYP2C9 IC50 (half-maximal inhibitory concentration) (human CYP2C9): Inactive; CYP3A4 IC50 (half-maximal inhibitory concentration) (CYP3A4): Inactive; CYP2D6 IC50 (half-maximal inhibitory concentration) (human CYP2D6): Inactive
12 | c1cc(CCCc2ccncc2)ccn1 [4,4'-Propane-1,3-diyldipyridine] |  |  |  | 1.54 |  | 1.5 | 0.87 | 1.54 | 5.05 | Luciferase IC50 [1]: Inactive
13 | Cc1cccc2c1cc1ccc3cccc4ccc2c1c34 [7-Methylbenzo(a)pyrene] |  |  |  | 0.16 |  |  |  |  |  | CYP2C9 IC50 (human CYP2C9): Inactive; Luciferase IC50 [1]: Inactive; AC50 (CYP3A4): 73 µM; CYP3A4 IC50 (CYP3A4): 72.98 ± 8.39 (145 ± 22) µM; CYP2D6 IC50 (human CYP2D6): Inactive; AC50 (human CYP1A2): 0.16 µM; CYP2C19 IC50 (human CYP2C19): Inactive
14 | O=C1CCCc2c1cc1ccc3cccc4ccc2c1c34 [9,10-Dihydrobenzo[a]pyren-7(8H)-one] |  | 9.09 ± 1.05 (-72 ± 4) % | 0.28 ± 0.05 (-100 ± 3) % | 0.28 | 26.27 ± 7.32 (-125 ± 17) % | 26.3 | 9.09 |  | 5.32 | CYP2C9 Efficacy (in parenthesis) (human CYP2C9): 5.32 ± 0.68 (-71 ± 3) %; Luciferase Efficacy (in parenthesis) [1]: 9.87 ± 1.68 (-53 ± 7) %; IC50 [1, 2]: 9.87 µM; CYP2D6 IC50 (half-maximal inhibitory concentration) (human CYP2D6): Inactive
15 | N#Cc1cc2ccccc2c2ccccc12 [9-Cyanophenanthrene] |  |  |  | 0.06 |  | 29.3 |  |  | 39.3 | IC50 ([1]; read-out: Luciferase IC50): 62.4 µM; CYP3A4 IC50 (CYP3A4): Inactive; CYP2D6 IC50 (human CYP2D6): Inactive
16 | Oc1cc2ccccc2c2ccccc12 [9-Phenanthrol] |  | 6.1 ± 0.4 (-91 ± 4) % | 0.05 ± 0.01 (-99 ± 4) % | 0.05 | 1.22 ± 0.17 (-132 ± 15) % | 1.22 |  | 2.53 | 4.41 | CYP2C9 Efficacy (in parenthesis) (human CYP2C9): 4.41 ± 1.07 (-106 ± 2) %; Luciferase Efficacy (in parenthesis) [1]: 71.29 ± 8.19 (-61 ± 21) %; IC50 [1, 2]: 71.3 µM; CYP2D6 Efficacy (in parenthesis) (human CYP2D6): 2.53 ± 0.29 (-109 ± 3) %
17 | O=C1NCN(c2ccccc2)C12CCN(CCCOc1ccc(F)cc1)CC2 [AMI-193] |  |  |  |  |  |  |  | 0.6 |  | CYP2C9 IC50 (human CYP2C9): Inactive; Luciferase IC50 [1]: Inactive; AC50 (CYP3A4): 4.72 µM; CYP3A4 IC50 (CYP3A4): 4.72 ± 0.31 (133 ± 10) µM; AC50 (human CYP2D6): 0.6 µM; CYP1A2 IC50 (human CYP1A2): Inactive; CYP2C19 AC50 (half-maximal activity concentration) (human CYP2C19): Inconclusive inhibitor; CYP2C19 IC50 (human CYP2C19): Inactive
18 | COC(=O)c1cc(Cl)ccc1NS(=O)(=O)C(F)(F)F [Amidoflumet] | Inactive |  |  | 0.91 |  |  |  |  |  | CYP2C9 IC50 (half-maximal inhibitory concentration) (human CYP2C9): Inactive; CYP3A4 IC50 (half-maximal inhibitory concentration) (CYP3A4): Inactive; CYP2D6 IC50 (half-maximal inhibitory concentration) (human CYP2D6): Inactive; CYP2C19 IC50 (half-maximal inhibitory concentration) (human CYP2C19): Inactive
19 | COP(=S)(NC(C)C)Oc1ccc(C)cc1[N+](=O)[O-] (centres unmarked) [Amiprofos-methyl] | Inactive | 0.55 ± 0.08 (-87 ± 1) % | 12.35 ± 5.02 (-104 ± 9) % | 12.3 | 0.41 ± 0.19 (-132 ± 27) % | 0.41 | 0.55 | 41.7 | 2.74 | CYP2C9 Efficacy (in parenthesis) (human CYP2C9): 2.74 ± 0.38 (-109 ± 3) %; CYP2D6 Efficacy (in parenthesis) (human CYP2D6): 41.71 ± 5.32 (-58 ± 14) %
20 | COP(=S)(OC)SCn1nnc2ccccc2c1=O [Azinphos-methyl] |  | 11.45 ± 2.62 (-87 ± 5) % |  |  |  |  |  |  |  | CYP2C9 Efficacy (in parenthesis) (human CYP2C9; human): 3.88 ± 0.66 (-99 ± 12) %; Luciferase Efficacy (in parenthesis) [1]: 47.70 ± 13.48 (-40 ± 2) %; CYP2D6 Efficacy (in parenthesis) (human CYP2D6; human): 55.48 ± 13.48 (-75 ± 13) %; CYP1A2 Efficacy (in parenthesis) (human CYP1A2; human): 28.26 ± 0 (-93 ± 8) %; CYP2C19 Efficacy (in parenthesis) (human CYP2C19; human): 1.01 ± 0.12 (-134 ± 9) %
21 | COc1ccc(OC)c(N=Nc2c(O)ccc3ccccc23)c1 [C.I. Solvent Red 80] |  |  |  | 0.75 |  | 8 | 2.79 | 13.6 | 6.33 | IC50 [1, 2]: 6.97 µM
22 | Cl.Clc1ccc(Cn2c(CN3CCCC3)nc3ccccc32)cc1 [Clemizole hydrochloride] | Inactive | 6.24 ± 1.17 (-72 ± 1) % | 17.64 ± 0.46 (-72 ± 13) % | 17.6 | 0.68 ± 0.17 (-140 ± 7) % | 0.68 | 6.24 | 1.56 | 16.1 | CYP2C9 Efficacy (in parenthesis) (human CYP2C9): 16.12 ± 1.09 (-82 ± 4) %; CYP2D6 Efficacy (in parenthesis) (human CYP2D6): 1.56 ± 0.18 (-101 ± 1) %
23 | Cl.Clc1ccc(C(OCCN2CCCCC2)c2ccccc2)cc1 (centres unmarked) [Cloperastine hydrochloride] |  |  |  | 22.5 |  | 18.5 | 4.43 | 0.17 |  | CYP2C9 IC50 (human CYP2C9): Inactive; Luciferase IC50 [1]: Inactive
